Assay results as given in PubChem BioAssay (NCI).
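Following 48 hours of exposure in 96-well plates, responses at five concentrations were used to interpolate endpoints linearly. At the TGI there is no net growth.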

Assays:
Assay in all cases: inhibition of tumour cell growth, NCI panel, 48 h
A549 NSCLC = test system: A549 NSCLC
BT-549 breast = test system: BT-549 breast
CAKI-1 renal = test system: CAKI-1 renal
COLO 205 colon = test system: COLO 205 colon
HCC-2998 colon = test system: HCC-2998 colon
HOP-62 NSCLC = test system: HOP-62 NSCLC
HOP-92 NSCLC = test system: HOP-92 NSCLC
LOX IMVI melanoma = test system: LOX IMVI melanoma
MCF7 breast = test system: MCF7 breast
MDA-MB-231 breast = test system: MDA-MB-231 breast
NCI-H226 lung = test system: NCI-H226 lung
NCI-H23 lung = test system: NCI-H23 lung
NCI/ADR-RES ovarian = test system: NCI/ADR-RES ovarian
OVCAR-5 ovarian = test system: OVCAR-5 ovarian
SK-MEL-2 melanoma = test system: SK-MEL-2 melanoma
SK-OV-3 ovarian = test system: SK-OV-3 ovarian
SNB-75 CNS = test system: SNB-75 CNS
SW-620 colon = test system: SW-620 colon
U251 CNS = test system: U251 CNS

CC1OC(OC2C(O)COC(OC3C(C)OC(OC4C(OC(=O)[C@]56CCC(C)(C)C[C@@H]5C5=CCC7[C@@]8(C)C[C@H](O)[C@H](OC9OC(CO)C(O)C(OC%10OC(CO)C(O)C(O)C%10O)C9O)[C@@](C)(CO)[C@@H]8CC[C@@]7(C)[C@]5(C)CC6)OCC(O)C4O)C(O)C3O)C2O)C(O)C(O)C1O (some centres undefined)
TGI (A549 NSCLC): 28.6 µM | TGI (BT-549 breast): 40.7 µM | TGI (CAKI-1 renal): 19.1 µM | TGI (COLO 205 colon): 18.1 µM | TGI (HCC-2998 colon): 32.9 µM | TGI (HOP-62 NSCLC): 28.8 µM | TGI (HOP-92 NSCLC): 38.4 µM | TGI (LOX IMVI melanoma): 35 µM | TGI (MCF7 breast): 36.1 µM | TGI (MDA-MB-231 breast): 31.2 µM | TGI (NCI-H226 lung): 42.9 µM | TGI (NCI-H23 lung): 31 µM | TGI (NCI/ADR-RES ovarian): 31.9 µM | TGI (OVCAR-5 ovarian): 27 µM | TGI (SK-MEL-2 melanoma): 36 µM | TGI (SK-OV-3 ovarian): 30.3 µM | TGI (SNB-75 CNS): 35 µM | TGI (SW-620 colon): 30.4 µM | TGI (U251 CNS): 32.8 µM

N#CCCN(CCN(C(=O)Nc1ccccc1)c1ccccc1)C(=O)Nc1ccccc1
TGI (A549 NSCLC): > 100 µM | TGI (BT-549 breast): > 100 µM | TGI (CAKI-1 renal): > 63.1 µM | TGI (COLO 205 colon): > 100 µM | TGI (HCC-2998 colon): > 100 µM | TGI (HOP-62 NSCLC): > 100 µM | TGI (HOP-92 NSCLC): > 100 µM | TGI (LOX IMVI melanoma): > 100 µM | TGI (MCF7 breast): > 100 µM | TGI (MDA-MB-231 breast): > 100 µM | TGI (NCI-H226 lung): > 100 µM | TGI (NCI-H23 lung): > 100 µM | TGI (NCI/ADR-RES ovarian): > 100 µM | TGI (OVCAR-5 ovarian): > 100 µM | TGI (SK-MEL-2 melanoma): > 100 µM | TGI (SK-OV-3 ovarian): > 100 µM | TGI (SNB-75 CNS): > 100 µM | TGI (SW-620 colon): > 100 µM | TGI (U251 CNS): > 100 µM

NC(=Nc1ccc(O)cc1)S(=O)O
TGI (A549 NSCLC): > 100 µM | TGI (BT-549 breast): > 100 µM | TGI (CAKI-1 renal): > 100 µM | TGI (COLO 205 colon): > 100 µM | TGI (HCC-2998 colon): > 100 µM | TGI (HOP-62 NSCLC): > 100 µM | TGI (HOP-92 NSCLC): > 100 µM | TGI (LOX IMVI melanoma): > 100 µM | TGI (MCF7 breast): > 100 µM | TGI (MDA-MB-231 breast): > 100 µM | TGI (NCI-H226 lung): > 100 µM | TGI (NCI-H23 lung): > 100 µM | TGI (NCI/ADR-RES ovarian): > 100 µM | TGI (OVCAR-5 ovarian): > 100 µM | TGI (SK-MEL-2 melanoma): > 100 µM | TGI (SK-OV-3 ovarian): > 100 µM | TGI (SNB-75 CNS): > 100 µM | TGI (SW-620 colon): > 100 µM | TGI (U251 CNS): > 100 µM

COc1cc2cc(C(=O)N3CC(CCl)c4ccccc43)[nH]c2c(OC)c1OC (centres undefined)
TGI (A549 NSCLC): > 100 µM | TGI (BT-549 breast): > 100 µM | TGI (CAKI-1 renal): > 100 µM | TGI (COLO 205 colon): > 100 µM | TGI (HCC-2998 colon): > 100 µM | TGI (HOP-62 NSCLC): > 92.1 µM | TGI (HOP-92 NSCLC): > 100 µM | TGI (LOX IMVI melanoma): > 100 µM | TGI (MCF7 breast): > 100 µM | TGI (MDA-MB-231 breast): > 100 µM | TGI (NCI-H226 lung): > 100 µM | TGI (NCI-H23 lung): > 100 µM | TGI (NCI/ADR-RES ovarian): > 100 µM | TGI (OVCAR-5 ovarian): > 100 µM | TGI (SK-MEL-2 melanoma): > 100 µM | TGI (SK-OV-3 ovarian): > 100 µM | TGI (SNB-75 CNS): > 100 µM | TGI (SW-620 colon): > 100 µM | TGI (U251 CNS): > 100 µM

NC(N)=NCCCC(NC(=O)OCCCCCCn1ccc(N)nc1=O)C(=O)O (centres undefined)
TGI (A549 NSCLC): > 100 µM | TGI (BT-549 breast): > 100 µM | TGI (CAKI-1 renal): > 100 µM | TGI (COLO 205 colon): > 100 µM | TGI (HCC-2998 colon): > 100 µM | TGI (HOP-62 NSCLC): > 100 µM | TGI (HOP-92 NSCLC): > 100 µM | TGI (LOX IMVI melanoma): > 100 µM | TGI (MCF7 breast): > 100 µM | TGI (MDA-MB-231 breast): > 100 µM | TGI (NCI-H226 lung): 33.6 µM | TGI (NCI-H23 lung): > 100 µM | TGI (NCI/ADR-RES ovarian): > 100 µM | TGI (OVCAR-5 ovarian): > 100 µM | TGI (SK-MEL-2 melanoma): > 100 µM | TGI (SK-OV-3 ovarian): > 100 µM | TGI (SNB-75 CNS): > 100 µM | TGI (SW-620 colon): > 100 µM | TGI (U251 CNS): > 100 µM

COC(=O)[C@@H]1C[C@H]([Se]c2ccccc2)CN1C(=O)OCc1ccccc1
TGI (A549 NSCLC): > 100 µM | TGI (BT-549 breast): 60.7 µM | TGI (CAKI-1 renal): > 100 µM | TGI (COLO 205 colon): 54.5 µM | TGI (HCC-2998 colon): > 100 µM | TGI (HOP-62 NSCLC): > 100 µM | TGI (HOP-92 NSCLC): > 100 µM | TGI (LOX IMVI melanoma): 26.5 µM | TGI (MCF7 breast): 41.5 µM | TGI (MDA-MB-231 breast): > 100 µM | TGI (NCI-H226 lung): > 100 µM | TGI (NCI-H23 lung): 99.2 µM | TGI (NCI/ADR-RES ovarian): > 100 µM | TGI (OVCAR-5 ovarian): > 100 µM | TGI (SK-MEL-2 melanoma): 42.2 µM | TGI (SK-OV-3 ovarian): > 100 µM | TGI (SNB-75 CNS): > 100 µM | TGI (SW-620 colon): > 100 µM | TGI (U251 CNS): > 100 µM
